In the supplement of paper PMC10307832:

Assays:
Assay in all cases: relative viability (nuclei count vs DMSO), 5 days (fraction); higher = more cells survive
TGX 221 + Lapatinib = compound: CC1=CN2C(=O)C=C(N=C2C(=C1)C(C)NC3=CC=CC=C3)N4CCOCC4 [TGX 221] + CS(=O)(=O)CCNCc1ccc(-c2ccc3ncnc(Nc4ccc(OCc5cccc(F)c5)c(Cl)c4)c3c2)o1 [Lapatinib] (partner 2 µM)
In short: (§1)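 Nuclei were stained with Hoechst during a one-step fixation (final 0.05% Triton X-100, 1% formaldehyde, 1 ug/ml Hoechst) carried out 5 days after dosing, then counted on 4× images. The cells, lung cancer lines in 1536-well plates, had been dosed by pin tool the day after seeding with one drug alone or a fixed anchor-drug dose plus five library-drug doses (not always all listed) in √10 steps. Relative viability is the nuclei count in treated wells divided by that in vehicle wells, and each value is the median of duplicate plates.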

TGX 221 + Trametinib = compound: CC1=CN2C(=O)C=C(N=C2C(=C1)C(C)NC3=CC=CC=C3)N4CCOCC4 [TGX 221] + CC(=O)Nc1cccc(-n2c(=O)n(C3CC3)c(=O)c3c(Nc4ccc(I)cc4F)n(C)c(=O)c(C)c32)c1 [Trametinib] (partner 0.02 µM)
In short: as §1

[1] = compound: C1=CC=C(C(=C1)C2=CC=C(C=C2)C3=CSC4=C3C(=C(C(=O)N4)C#N)O)O + CS(=O)(=O)CCNCc1ccc(-c2ccc3ncnc(Nc4ccc(OCc5cccc(F)c5)c(Cl)c4)c3c2)o1 [Lapatinib] (partner 2 µM)
In short: as §1

TGX 221 + Dasatinib = compound: CC1=CN2C(=O)C=C(N=C2C(=C1)C(C)NC3=CC=CC=C3)N4CCOCC4 [TGX 221] + Cc1nc(Nc2ncc(C(=O)Nc3c(C)cccc3Cl)s2)cc(N2CCN(CCO)CC2)n1 [Dasatinib] (partner 0.075 µM)
In short: as §1

Cell Line	relative viability (TGX 221 + Lapatinib; first compound 0.08 µM)	relative viability (TGX 221 + Lapatinib; first compound 0.8 µM)	relative viability (TGX 221 + Lapatinib; first compound 2.53 µM)	relative viability (TGX 221 + Lapatinib; first compound 8 µM)	relative viability (TGX 221 + Trametinib; first compound 0.08 µM)	relative viability (TGX 221 + Trametinib; first compound 0.253 µM)	relative viability (TGX 221 + Trametinib; first compound 0.8 µM)	relative viability (TGX 221 + Trametinib; first compound 2.53 µM)	relative viability (TGX 221 + Trametinib; first compound 8 µM)	relative viability ([1]; first compound 0.08 µM)	relative viability ([1]; first compound 0.253 µM)	relative viability ([1]; first compound 0.8 µM)	relative viability ([1]; first compound 2.53 µM)	relative viability ([1]; first compound 8 µM)	relative viability (TGX 221 + Dasatinib; first compound 0.08 µM)	relative viability (TGX 221 + Dasatinib; first compound 0.253 µM)	relative viability (TGX 221 + Dasatinib; first compound 0.8 µM)	relative viability (TGX 221 + Dasatinib; first compound 2.53 µM)	relative viability (TGX 221 + Dasatinib; first compound 8 µM)	relative viability (TGX 221 + Lapatinib; first compound 0.253 µM)
LC-2-ad	0.943	0.972	1.01	0.978	0.846	0.906	0.927	0.885	0.858	0.781	1.01	0.903	1.1	1.11	0.459	0.51	0.66	0.55	0.505	
NCI-H2347	0.945	0.976	0.996	0.915	0.23	0.258	0.265	0.304	0.213	0.844	1.17	0.889	0.916	0.932	0.242	0.318	0.313	0.244	0.269	0.908
NCI-H2009	0.961	0.894	0.882	0.772	0.25	0.196	0.204	0.152	0.173	1.04	0.933	0.795	0.886	0.724	0.254	0.199	0.228	0.213	0.177	0.927
NCI-H1650	0.654	0.617	0.759	0.581	0.456	0.655	0.669	0.596	0.416		0.872	0.811	0.72	0.54	0.236	0.29	0.28	0.323	0.242	0.64
NCI-H650	1	0.706	0.908	0.76	0.932	0.894	0.974	0.908	0.861	0.625	1.09	0.742	1.09	0.763	0.44	0.402	0.424	0.393	0.429	0.98
NCI-H460	0.709	0.983	0.969	0.966	0.104	0.121	0.202	0.171	0.0976		1.09	0.868	1.24	0.747	0.478	0.477	0.526	0.539	0.432	0.795
HOP-62	1.15	1.09	1.02	0.912	0.386	0.351	0.338	0.252	0.298	0.766	0.888	1.1	1.19	0.871	0.668	0.566	0.635	0.533	0.534	0.987
NCI-H1975	0.92	0.861	0.796	0.791	0.313	0.414	0.356	0.289	0.272	0.756	1.01	0.832	0.895	0.766	0.347	0.335	0.318	0.345	0.343	0.855
NCI-H838	1.06	0.886	0.822	0.718	0.49	0.456	0.45	0.402	0.355	0.659	1.11	0.973	0.887	0.872	0.305	0.258	0.273	0.234	0.223	0.876
NCI-H2085	0.666	0.681	0.469	0.462	0.505	0.351	0.374	0.286	0.276	0.608	0.841	0.677	0.685	0.671	0.228	0.195	0.208	0.191	0.187	0.644
NCI-H3122	1.01	1.02	1.01	0.985	0.244	0.188	0.224	0.211	0.257	1.05	1.17	1.06	1.06	1.02	0.931	0.83	0.865	0.794	0.872	0.994
HCC-15	0.842	0.821	0.823	0.861	0.373	0.335	0.368	0.376	0.337	0.702	0.918	0.897	0.962	0.783	0.595	0.575	0.657	0.564	0.608	0.8
LU99A	0.957	0.939	1.01	0.913	0.507	0.479	0.557	0.505	0.493	0.97	1.09	1.13	1.12	0.955	0.507	0.507	0.509	0.556	0.593	0.865
UMC-11	0.879	0.901	0.909	1.18	0.671	0.648	0.822	0.777	0.823	0.745	0.871	0.941	1	0.858	0.481	0.437	0.436	0.535	0.492	0.854
NCI-H2405	0.836	0.971	1.02	0.901	0.529	0.571	0.461	0.465	0.436	1.01	1.12	1.11	0.984	1.04	0.235	0.206	0.22	0.205	0.179	1.02
NCI-H1915	0.88	0.999	0.963	0.985	0.283	0.29	0.29	0.274	0.238	0.835	1.04	0.924	1.15	0.882	0.257	0.303	0.304	0.302	0.314	0.978
